Read-outs that look alike come from different tables or passages of the source.
Tests used:
[1] = in cell culture; previous studies of the inventors; cited from earlier work
[2] = system: human normal lung fibroblasts CCD19Lu; experiment: MTT cytotoxicity assay in CCD19Lu cells; format: cell-based
Method: (§1) The novel compound was dissolved in DMSO at final concentration of 100 mmol/L and stored at −20° C. Cytotoxicity was assessed using the 3-(4,5-dimethylthiazol-2-yl)-2,5-diphenyltetrazolium bromide assay as described previously. Several kinds of cells were seeded on 96-well plates, namely MCF-7, 4000 cells; HepG2, 4000 cells; HeLa, 3000 cells; A549, 4000 cells; LLC-1, 3000 cells; H1299, 3000 cells; CCD19Lu, 4000 cells per well. After overnight pre-incubation, the cells were exposed to different concentrations of the novel compound (0.039-100 μmol/L) or control compounds 20(S)-Rh2 and 20(R)-Rh2 for 3 days. Subsequently, 10 μL of MTT reagents was added to each well and incubated at 37° C. for 4 hours followed by the addition of 100 μL solubilization buffer (10% SDS in 0.01 mol/L HCl) and overnight incubation. A585 nm was determined from each well the next day. The percentage of viable cells was calculated using the following formula: Cell viability (%)=Atreated/Acontrol×100. Data was obtained from three independent experiments.

[3] = system: lung cancer cells (LLC-1); experiment: MTT cytotoxicity assay in LLC-1 cells; format: cell-based, mouse
Method: as §1

[4] = system: osteoclastgenesis; conditions: literature [2]; cited from earlier work
[5] = system: panel of 7 tumor cell lines and human normal lung fibroblasts; conditions: previous studies of the inventors, cited from earlier work
[6] = literature [4]; cited from earlier work
[7] = system: several tumor cell lines; conditions: literature [2], cited from earlier work
[8] = MTT cytotoxicity assay in CCD19Lu cells; format: cell-based, human; conditions: human
Method: as §1

[9] = Acute oral toxicity, OECD Test Guideline 423, 14-day; format: in vivo, C57BL/6J mice
Method: The acute oral toxicity of the novel compound was evaluated in line with the Organization for Economic Cooperation and Development (OECD) Guideline for Testing Chemicals—Acute Oral Toxicity—Acute Toxic Class Method (Test Guideline 423, Adopted on 17 Dec. 2001). Based on the result of Example 4, the Test Procedure with a Starting Dose of 2000 mg/kg (Annex 2d of OECD 423) was selected to evaluate the acute toxicity of the novel compound. In the test, 3 female and 3 male C57BL/6J mice (SPF grade) were fasted overnight and then orally administrated by gavage feeding with single dose of the novel compound solution at 2000 mg/kg.

[10] = system: other five cancer cell lines (MCF-7, HepG2, HeLa, A549, H1299); format: cell-based
Method: as §1

[11] = Sub-chronic lethal dose study, 7-day repeated oral dosing; format: in vivo, male C57BL/6J mice; conditions: 160 and 320 mg/kg/day oral, 7-day treatment
Method: 10 male C57BL/6J mice were divided into two treatment groups, i.e. 160 mg/kg/day and 320 mg/kg/day. The novel compound powder was dissolved with PEG400:ethanol:distilled water in a ratio of 60%:10%:30% (v/v/v), and orally administrated to mice by gavage feeding at doses of 160 and 320 mg/kg/day for 7 consecutive days. The health condition of the animals was monitored and their body weights were recorded during this 7 days treatment duration.

[12] = system: LLC-1 tumor; format: in vivo, male C57BL/6J mice; conditions: for suppression on the tumor growth: 21-day treatment, vs vehicle
Method: The LLC-1 cells harvested from in vitro culture were adjusted to a concentration of 1.5×10^7/mL and 0.1 mL cell suspension was injected subcutaneously into the dorsal region of the male C57BL/6J mice. Subsequently, when 70% of mice had developed tumor into a volume (length×width^2×0.52) larger than 50 mm^3, the animals were randomly divided into the vehicle control and several treatment groups. The novel compound powder was dissolved with PEG400:ethanol:distilled water in a ratio of 60%:10%:30% (v/v/v), and orally administrated to mice by gavage feeding at doses of 10, 20, 40 and 80 mg/kg/day for 21 consecutive days. Oral administration of 80 mg/kg/day 20(R)-Rh2, 20(S)-Rh2 and 20(S)-Rg3, and 10 mg/kg/day 5-Fu were designed as control groups. In order to make sure all groups were appropriately blended, all the experimental procedures such as subcutaneous tumor cells injection, treatment and tumor size measurement were performed by three individual persons who were blended for animal group identity.

CC(C)=CCC[C@@](C)(O)[C@H]1CC[C@]2(C)[C@@H]1[C@H](O)C[C@@H]1[C@@]3(C)CC[C@H](O[C@@H]4O[C@H](CO)[C@@H](O)[C@H](O)[C@H]4O)C(C)(C)[C@@H]3CC[C@]12C [20(R)-Rh2, 20(R)-ginsenoside Rh2]
solubility (in words) [1]: poor solubility
cytotoxicity (in words) ([2]; CCD19Lu cells, MTT, 3 days exposure): no cytotoxicity
cytotoxicity (in words) ([3]; LLC-1 cells, MTT, 3 days exposure): no cytotoxicity
osteoclastgenesis inhibition (in words) [4]: selective osteoclastgenesis inhibitor
concentration up to which no cytotoxic effect ([5]; in cell culture): > 100 µM
intestinal absorption (in words) [6]: lower absorption profiles
cell cytotoxicity (in words) [7]: without any cell cytotoxicity

CC(C)=CCC[C@](C)(O)[C@H]1CC[C@]2(C)[C@@H]1[C@H](O)C[C@@H]1[C@@]3(C)CC[C@H](O[C@@H]4O[C@H](CO)[C@@H](O)[C@H](O)[C@H]4O)C(C)(C)[C@@H]3CC[C@]12C [20(S)-Rh2]
IC50 [2]: 80.5 µM
IC50 [3]: 46.5 µM
IC50 ([5]; panel of 7 tumor cell lines and human normal lung fibroblasts, read-out: cytotoxicity, IC50): 45 to 65 µM
IC50 ([7]; several tumor cell lines, read-out: cytotoxicity, IC50): 22 to 50 µM

CC(C)=CCC[C@](C)(O)[C@H]1CC[C@]2(C)[C@@H]1[C@H](O)C[C@@H]1[C@@]3(C)CC[C@H](O[C@@H]4O[C@H](CO)[C@@H](O)[C@H](O)[C@H]4O)C(C)(C)[C@@H]3CC[C@]12C [Rh2, Ginsenoside Rh2]
intestinal absorption (in words) [6]: poor intestinal absorption
permeability (in words) [6]: poor permeability

CC(C)(O)C1CC[C@](C)(C2CC[C@]3(C)C2[C@H](O)CC2[C@@]4(C)CC[C@H](O[C@@H]5OC(CO)[C@@H](O)C(O)C5O)C(C)(C)C4CC[C@]23C)O1 (stereo partly drawn) [novel compound]
IC50 at 3 days [8]: > 100 µM
IC50 ([3]; Mus musculus, LLC1, 72 h, read-out: cytotoxic effect, IC50): 56 µM
Globally Harmonized Classification System (GHS) class ([9]; acute oral toxicity, OECD Test Guideline 423): Class 5 or unclassified
LD50 at 14 days ([9]; both sexes, C57BL/6J, mouse, in vivo, 2000 mg/kg, oral, mice, estimated per OECD Test Guideline 423 criteria): > 5000 mg/kg
body weight and sign of toxicity ([9]; single oral dose 2000 mg/kg, 14 days): no significant drop of body weight and sign of toxicity
animal death ([9]; single oral dose 2000 mg/kg, 14 days, both gender): zero animal death
cytotoxic potency (in words) [10]: dose-dependent cytotoxic potency
animal survival [11]: 100%
body weight [11]: no significant drop of body weight
suppression on the tumor growth ([12]; 10 mg/kg/day oral, P>0.05): 35.24%
suppression on the tumor growth ([12]; 20 mg/kg/day oral, P>0.05): 40.49%
suppression on the tumor growth ([12]; 40 mg/kg/day oral, P<0.05): 44.9%
suppression on the tumor growth ([12]; 80 mg/kg/day oral, P<0.01): 52.04%
adverse impacts on the major organs and body weight ([12]; mouse, in vivo, po): without observable adverse impacts

— US9051348B2, “Ginsenoside with anti-cancer activity and the preparation method thereof” (Macau University of Science and Technology, priority 2012, dated 2015)
